Each compound was assayed against T1, Ba/F3-Tel-KDR cells (Homo sapiens, UniProt P35968) (assay: Ba/F3-Tel-KDR cell viability inhibition assay (CellTiter-Glo)). Settings: 48 hour incubation, read-out: IC50 (the source's name).
T1 construct: fused on or other part: N-terminal oligomerising part of TEL (ETV6) fused to the tyrosine kinase domain of KDR; P41212 (Transcription factor ETV6)
T1 sequence (P35968 whole entry, change not shown, the tested form may be a part): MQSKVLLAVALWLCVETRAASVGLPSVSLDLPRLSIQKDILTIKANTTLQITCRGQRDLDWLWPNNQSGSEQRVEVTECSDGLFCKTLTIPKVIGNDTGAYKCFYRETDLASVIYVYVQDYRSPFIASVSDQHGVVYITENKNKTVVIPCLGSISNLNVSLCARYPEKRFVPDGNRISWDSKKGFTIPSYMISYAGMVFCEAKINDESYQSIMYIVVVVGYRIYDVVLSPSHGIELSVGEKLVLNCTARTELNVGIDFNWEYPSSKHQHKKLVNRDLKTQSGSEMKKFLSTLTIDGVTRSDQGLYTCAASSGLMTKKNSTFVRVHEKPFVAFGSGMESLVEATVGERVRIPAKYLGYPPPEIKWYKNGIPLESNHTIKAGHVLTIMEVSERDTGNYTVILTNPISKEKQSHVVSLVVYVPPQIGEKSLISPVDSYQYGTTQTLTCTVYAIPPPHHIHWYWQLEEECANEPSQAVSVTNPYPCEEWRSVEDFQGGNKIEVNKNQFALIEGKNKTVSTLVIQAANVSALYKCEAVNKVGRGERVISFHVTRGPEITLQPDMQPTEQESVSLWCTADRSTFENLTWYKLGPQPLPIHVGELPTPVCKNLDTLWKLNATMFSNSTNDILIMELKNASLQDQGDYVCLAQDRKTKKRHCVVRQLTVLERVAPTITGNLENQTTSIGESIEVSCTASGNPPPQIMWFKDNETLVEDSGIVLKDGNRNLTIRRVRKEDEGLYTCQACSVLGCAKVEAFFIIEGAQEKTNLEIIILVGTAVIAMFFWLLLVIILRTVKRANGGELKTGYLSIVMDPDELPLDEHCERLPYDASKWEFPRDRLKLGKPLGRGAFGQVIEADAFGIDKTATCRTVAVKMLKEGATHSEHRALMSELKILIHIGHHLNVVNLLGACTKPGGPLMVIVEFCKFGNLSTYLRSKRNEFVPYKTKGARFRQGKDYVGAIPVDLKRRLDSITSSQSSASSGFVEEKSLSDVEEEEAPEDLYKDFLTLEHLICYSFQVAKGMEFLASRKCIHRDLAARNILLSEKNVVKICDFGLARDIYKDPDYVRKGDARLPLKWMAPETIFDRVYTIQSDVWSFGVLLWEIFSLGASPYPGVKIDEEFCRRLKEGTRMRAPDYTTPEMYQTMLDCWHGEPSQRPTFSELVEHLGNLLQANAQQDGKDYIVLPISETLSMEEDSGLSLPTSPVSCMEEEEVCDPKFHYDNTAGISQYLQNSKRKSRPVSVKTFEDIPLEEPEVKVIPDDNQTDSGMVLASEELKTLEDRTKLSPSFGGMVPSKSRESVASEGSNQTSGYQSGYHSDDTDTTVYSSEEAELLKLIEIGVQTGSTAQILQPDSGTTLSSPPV
Type: cell-based
Text: This assay is a cell-based assay to measure the compound-mediated suppression of Ba/F3 cell proliferation and viability using the Luciferase bioluminescent assay commercially known as CellTiter-Glo™. In this case, a specifically modified cell line, Ba/F3-Tel-KDR is used. These cells are engineered such that intact signaling through the tyrosine kinase domain of KDR is critical for their survival. Inhibition of KDR signaling results in cell death which is quantitated using a cell viability assay. This is a homogeneous bioluminescent assay that yields a rapid, simple and sensitive determination of the number of viable cells in culture by generation of a luminescent signal proportional to the amount of ATP present in cells. KDR inhibitor compound dilutions are incubated with Ba/F3-Tel-KDR cells over a 48 hour period and the resulting cell viability is measured with a suitable luminometer.
This assay is performed in Ba/F3-Tel-KDR cells. Cells are cultured at 37° C. […] Medium is changed the day before the experiment. On Day 1, cells are plated into white solid bottom 384-well plates at 5000 cells/well in 25 μl culture medium. A ten-point dose response curve is prepared as follows: compounds are first serially diluted 3-fold in 100% DMSO, starting from 10 mM. […] 5 μl of diluted compound is added to cell plates with 25 μl culture medium. […] The final concentration of DMSO is 0.1%. Wells without or with cells plus 0.1% DMSO serve as controls. On Day 3, Lyophilized CellTiter-Glo buffer and substrate and the cell plates are first equilibrated to room temperature. Substrate is reconstituted in buffer and 30 μl reconstituted substrate is added to each well. After incubation for 10 minutes at room temperature, plates are read in a luminometer. Compounds are tested in a 10-point dose response and each concentration is run in triplicate on a given plate. Each plate is run in duplicate.
CNCc1cc(Oc2ccc3c(cc(C)n3C(=O)Nc3cccc(C(F)(F)F)c3)c2F)ncn1 [Example 19-AP] was tested, and the GI50 was 430 nM. Compound CC(=O)N1CC2C[C@H]1CN2Cc1cc(Oc2ccc3c(ccn3C(=O)Nc3cccc(C(F)(F)F)c3)c2)ncn1 (stereo in doubt) [Example 98-B, 5-[6-((1R,4S)-5-Acetyl-2,5-diaza-bicyclo[2.2.1]hept-2-ylmethyl)-pyrimidin-4-yloxy]-indole-1-carboxylic acid (3-trifluoromethyl-phenyl)-amide] has a GI50 of under 1 nM. With CNCc1cc(Oc2ccc3c(ccn3C(=O)Nc3cc(C4CC4)n(C)n3)c2)ncn1 [Example 137-N] the GI50 was 14 nM. In the case of CNCc1cc(Oc2ccc3c(ccn3C(=O)Nc3cc(C(F)(F)F)n(C)n3)c2)ccn1 [Example 149-F], the GI50 was 6 nM. For CCN1Cc2ncnc(Oc3ccc4c(ccn4C(=O)Nc4cc5n(n4)CCC5(C)C)c3)c2C[C@@H]1C [Example 136-I], the GI50 was 1 nM. For CNC(=O)C1Cc2c(ncnc2Oc2ccc3c(ccn3C(=O)Nc3cc(C4CC4)on3)c2)CN1 (racemic) [Example 148-G, (±)-4-[1-(5-Cyclopropyl-isoxazol-3-ylcarbamoyl)-1H-indol-5-yloxy]-5,6,7,8-tetrahydro-pyrido[3,4-d]pyrimidine-6-carboxylic acid methylamide], the GI50 was 88 nM. For CC(=O)N1Cc2ncnc(Oc3ccc4c(ccn4C(=O)Nc4ccn(C(C)(C)C)n4)c3)c2C[C@@H]1C [Example 135-AA], the GI50 was under 1 nM. Compound Cc1c(Oc2ncnc3c2C[C@H](C)NC3)ccc2c1ccn2C(=O)Nc1cc(C2CC2)on1 [Example 134-AG] has a GI50 of 95 nM. CNCc1cc(Oc2ccc3c(ccn3C(=O)Nc3cc(C)n(CC(F)(F)F)n3)c2)ncn1 [Example 137-P] showed a GI50 of 11 nM. CS(=O)(=O)NC1CCN(Cc2cc(Oc3ccc4c(ccn4C(=O)Nc4cccc(C(F)(F)F)c4)c3)ncn2)CC1 [Example 39, 5-[6-(4-Methanesulfonylamino-piperidin-1-ylmethyl)-pyrimidin-4-yloxy]-indole-1-carboxylic acid (3-trifluoromethyl-phenyl)-amide] showed a GI50 of 2 nM. For CS(=O)(=O)Cc1cc(Oc2ccc3c(ccn3C(=O)Nc3ccc(F)c(C(F)(F)F)c3)c2)ncn1 [Example 86-A, N-(4-fluoro-3-(trifluoromethyl)phenyl)-5-(6-(methylsulfonylmethyl)pyrimidin-4-yloxy)-1H-indole-1-carboxamide], the GI50 was under 1 nM. Work on O=C(Nc1cccc(C(F)(F)F)c1)n1ccc2cc(Oc3cc(CN4CCCC4)ncn3)ccc21 [Example 19-K] yielded a GI50 of 222 nM. In the case of Cc1c(Oc2ncnc3c2CNC3)ccc2c1ccn2C(=O)Nc1cc(C2CC2)on1 [Example 134-AC], the GI50 was 4 nM. Cn1ccc2c(NC(=O)n3ccc4cc(Oc5ncnc6c5CNC6)ccc43)cccc21 [Example 111-B, 5-(6,7-dihydro-5H-pyrrolo[3,4-d]pyrimidin-4-yloxy)-indole-1-carboxylic acid (1-methyl-1H-indol-4-yl)-amide] was tested, and the GI50 was 10 nM. O=C(Nc1cc(C2(C(F)(F)F)CC2)on1)n1ccc2cc(Oc3ncnc4c3CCCNC4)ccc21 [Example 134-A] showed a GI50 of 3 nM. In the case of CNC(=O)c1cc(Oc2ccc3c(ccn3C(=O)Nc3cccc(C(F)(F)F)c3)c2)ccn1 [Example 28-B, 5-(2-Methylcarbamoyl-pyridin-4-yloxy)-indole-1-carboxylic acid (3-trifluoromethyl-phenyl)-amide], the GI50 was 11 nM. With O=C(Nc1cncc(C(F)(F)F)c1)n1ccc2cc(Oc3ncnc4c3CCNC4)ccc21 [Example 55-B, 5-(5,6,7,8-Tetrahydro-pyrido[3,4-d]pyrimidin-4-yloxy)-indole-1-carboxylic acid (5-trifluoromethyl-pyridin-3-yl)-amide] the GI50 was 107 nM. O=C(Nc1cccc(C(F)(F)F)c1)n1ccc2cc(Oc3ncnc4c3CN(CCO)C4)ccc21 [Example 64-A, 5-[6-(2-Hydroxy-ethyl)-6,7-dihydro-5H-pyrrolo[3,4-d]pyrimidin-4-yloxy]-indole-1-carboxylic acid (3-trifluoromethyl-phenyl)-amide] was tested, and the GI50 was 8 nM. Compound Cc1nnn(Cc2cc(Oc3ccc4c(ccn4C(=O)Nc4ccc(F)c(C(F)(F)F)c4)c3)ncn2)n1 [Example 27-I] has a GI50 of under 1 nM. Compound O=C(Nc1ccc(F)c(C(F)(F)F)c1)n1ccc2cc(Oc3ncnc4c3CCNC4)ccc21 [Example 33-D] has a GI50 of 189 nM. O=C(Nc1cc(F)cc(C(F)(F)F)c1)n1ccc2cc(Oc3ncnc4c3CCNC4)ccc21 [Example 33-H] was tested, and the GI50 was 330 nM. For O=C(Nc1ccc(F)c(C(F)(F)F)c1)n1ccc2cc(Oc3cc(CNC4CC4)ncn3)ccc21 [Example 19-Y], the GI50 was 23 nM. CNCc1cc(Oc2ccc3c(ccn3C(=O)Nc3cc(C(C)(C)C)[nH]n3)c2)ncn1 [Example 59-B, 5-(6-Methylaminomethyl-pyrimidin-4-yloxy)-indole-1-carboxylic acid (5-tert-butyl-2H-pyrazol-3-yl)-amide] was tested, and the GI50 was 4 nM.

From patent publication US8242125B2, “Heterobicyclic carboxamides as inhibitors for kinases” (Novartis AG, priority 2008, dated 2012)
